In this test the test system is NCI/ADR-RES complex spheroid viability. Description: Anticancer human tumor NCI/ADR-RES cell line growth inhibition.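 For all read-outs here: spheroids exposed to compounds for 7 days.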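 For viability, T/C: 100% = DMSO vehicle treated spheroids.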 The following applies: for viability, T/C: stronger effect = lower value. Put shortly:
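Drug combinations with the LSD1 inhibitor iadademstat tested on tumor cells co-cultured as spheroids with endothelial cells and mesenchymal stem cells. Concentrations descended in half-log increments from clinical Cmax or 10 microM.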

The mark [1] stands for this setting: curve of first compound, second compound 0.1 µM.
Where [2] appears, read: curve of first compound, second compound 0.316 µM.
Setting [3] is: curve of first compound, second compound 1 µM.
Setting [4] is: curve of first compound, second compound 3.16 µM.
Where [5] appears, read: curve of first compound, second compound 10 µM.
[6] abbreviates: second compound 0.1 µM, first compound 0.00316 µM.
[7] abbreviates: second compound 0.1 µM, first compound 0.01 µM.
Setting [8] is: second compound 0.1 µM, first compound 0.0316 µM.
Setting [9] is: second compound 0.1 µM, first compound 0.1 µM.
Setting [10] is: second compound 0.1 µM, first compound 0.316 µM.
Setting [11] is: second compound 0.1 µM, first compound 1 µM.
The mark [12] stands for this setting: second compound 0.316 µM, first compound 0.00316 µM.
The mark [13] stands for this setting: second compound 0.316 µM, first compound 0.01 µM.
The mark [14] stands for this setting: second compound 0.316 µM, first compound 0.0316 µM.
Where [15] appears, read: second compound 0.316 µM, first compound 0.1 µM.
Where [16] appears, read: second compound 0.316 µM, first compound 0.316 µM.
Setting [17] is: second compound 0.316 µM, first compound 1 µM.
[18] abbreviates: second compound 1 µM, first compound 0.00316 µM.
Where [19] appears, read: second compound 1 µM, first compound 0.01 µM.
Where [20] appears, read: second compound 1 µM, first compound 0.0316 µM.
The mark [21] stands for this setting: second compound 1 µM, first compound 0.1 µM.
Where [22] appears, read: second compound 1 µM, first compound 0.316 µM.
Where [23] appears, read: second compound 1 µM, first compound 1 µM.
The mark [24] stands for this setting: second compound 3.16 µM, first compound 0.00316 µM.
[25] abbreviates: second compound 3.16 µM, first compound 0.01 µM.
Setting [26] is: second compound 3.16 µM, first compound 0.0316 µM.
The mark [27] stands for this setting: second compound 3.16 µM, first compound 0.1 µM.
Setting [28] is: second compound 3.16 µM, first compound 0.316 µM.
Where [29] appears, read: second compound 3.16 µM, first compound 1 µM.
Setting [30] is: second compound 10 µM, first compound 0.00316 µM.
[31] abbreviates: second compound 10 µM, first compound 0.01 µM.
The mark [32] stands for this setting: second compound 10 µM, first compound 0.0316 µM.
The mark [33] stands for this setting: second compound 10 µM, first compound 0.1 µM.
Setting [34] is: second compound 10 µM, first compound 0.316 µM.
Setting [35] is: second compound 10 µM, first compound 1 µM.
Setting [36] is: second compound 0.1 µM, first compound 3.16 µM.
[37] abbreviates: second compound 0.1 µM, first compound 10 µM.
Setting [38] is: second compound 0.316 µM, first compound 3.16 µM.
[39] abbreviates: second compound 0.316 µM, first compound 10 µM.
Where [40] appears, read: second compound 1 µM, first compound 3.16 µM.
Setting [41] is: second compound 1 µM, first compound 10 µM.
[42] abbreviates: second compound 3.16 µM, first compound 3.16 µM.
[43] abbreviates: second compound 3.16 µM, first compound 10 µM.
Where [44] appears, read: second compound 10 µM, first compound 3.16 µM.
Where [45] appears, read: second compound 10 µM, first compound 10 µM.

Values joined by “and” are separate entries in the source; they are usually repeats but may differ in a detail not shown here. Equal entries are not always repeated.

On to `O=C(C=Cn1cnc(-c2cc(C(F)(F)F)cc(C(F)(F)F)c2)n1)NNc1cnccn1` + NC1CCC(NC2CC2c2ccccc2)CC1, for which the IC50 (usually the point on the concentration scale where inhibition reaches its midpoint) is 6.5 nM under setting [1]; 5.82 nM under setting [2]; 5.77 nM under setting [3]; 4.94 nM under setting [4]; 3.46 nM under setting [5]. Also, the viability, T/C (as a rule, the ratio of treated to control) under setting [6] was 80.1%; the viability, T/C under setting [7] was 29.1%; the viability, T/C under setting [8] is 17.7%; the viability, T/C under setting [9] was 13.6%; the viability, T/C under setting [10] was 5.76%; the viability, T/C under setting [11] is 2.44%. For the same molecule, the viability, T/C by setting is: under setting [12], 72.3%; under setting [13], 26.2%; under setting [14], 18.8%; under setting [15], 21.9%; under setting [16], 4.73%; under setting [17], 1.86%. Moreover, the viability, T/C was 72.3% under setting [18]; 27.6% under setting [19]; 17.8% under setting [20]; 11.6% under setting [21]; 8.01% under setting [22]; 3.34% under setting [23]. Further, the viability, T/C under setting [24] was 65%; the viability, T/C under setting [25] is 24.6%; the viability, T/C under setting [26] is 15.9%; the viability, T/C under setting [27] was 7.79%; the viability, T/C under setting [28] is 4.6%; the viability, T/C under setting [29] is 2.43%. Moreover, the viability, T/C under setting [30] was 52.9%; the viability, T/C under setting [31] was 20.5%; the viability, T/C under setting [32] was 9.74%; the viability, T/C under setting [33] is 5.15%; the viability, T/C under setting [34] is 3.07%; the viability, T/C under setting [35] is 1.56%.

As for `COc1cc(Nc2ncc3c(n2)-c2ccc(Cl)cc2C(c2c(F)cccc2OC)=NC3)ccc1C(=O)O` + NC1CCC(NC2CC2c2ccccc2)CC1, the IC50 is 20.8 nM under setting [1]; 21.2 nM under setting [2]; 17.5 nM under setting [3]; 16.6 nM under setting [4]; 16.1 nM under setting [5]. For the same molecule, the viability, T/C by setting is: under setting [6], 92%; under setting [7], 71%; under setting [8], 38%; under setting [9], 23.2%; under setting [10], 18.2%; under setting [11], 20.5%. Also, the viability, T/C reads like this: under setting [12], 92%; under setting [13], 75%; under setting [14], 37.1%; under setting [15], 18.1%; under setting [16], 20%; under setting [17], 17.4%. The viability, T/C was 90.4% under setting [18]; 61% under setting [19]; 40.2% under setting [20]; 18.6% under setting [21]; 16.6% under setting [22]; 18.8% under setting [23]. For the same molecule, the viability, T/C is, setting by setting: under setting [24], 90.6%; under setting [25], 63.4%; under setting [26], 32.7%; under setting [27], 19.1%; under setting [28], 12.3%; under setting [29], 12.7%. Further, the viability, T/C was 82% under setting [30]; 63.7% under setting [31]; 30.3% under setting [32]; 17.5% under setting [33]; 9.8% under setting [34]; 8.65% under setting [35].

As to `CC(C)c1c(-c2ccccc2)nc2c(C#N)c[nH]n2c1=O` + NC1CC1c1ccc(-c2cccc(O)c2)cc1, the IC50 runs as follows: under setting [1], more than 10000 nM; under setting [2], more than 10000 nM; under setting [3], more than 10000 nM; under setting [4], more than 10000 nM; under setting [5], more than 10000 nM. In addition, the viability, T/C is 104% under setting [8]; 107% under setting [9]; 102% under setting [10]; 103% under setting [11]; 108% under setting [36]; 95.3% under setting [37]. In addition, the viability, T/C by setting is: under setting [14], 113%; under setting [15], 106%; under setting [16], 104%; under setting [17], 102%; under setting [38], 109%; under setting [39], 98.9%. For the same molecule, the viability, T/C was 109% under setting [20]; 101% under setting [21]; 106% under setting [22]; 106% under setting [23]; 100% under setting [40]; 96.5% under setting [41]. In addition, the viability, T/C was 106% under setting [26]; 108% under setting [27]; 106% under setting [28]; 107% under setting [29]; 97.6% under setting [42]; 98.9% under setting [43]. Also, the viability, T/C by setting is: under setting [32], 87%; under setting [33], 96.3%; under setting [34], 91.7%; under setting [35], 91.2%; under setting [44], 89.2%; under setting [45], 84.2%.

Consider `CC1(C)CCC(CN2CCN(c3ccc(C(=O)NS(=O)(=O)c4ccc(NCC5CCOCC5)c([N+](=O)[O-])c4)c(Oc4cnc5[nH]ccc5c4)c3)CC2)=C(c2ccc(Cl)cc2)C1` + NC1CCC(NC2CC2c2ccccc2)CC1, for which the IC50 is more than 10000 nM under setting [1]; more than 10000 nM under setting [2]; more than 10000 nM under setting [3]; more than 10000 nM under setting [4]; more than 10000 nM under setting [5]. The viability, T/C runs as follows: under setting [8], 98.7%; under setting [9], 101%; under setting [10], 93.5%; under setting [11], 103%; under setting [36], 96.8%; under setting [37], 91.3%. Moreover, the viability, T/C reads like this: under setting [14], 91.8%; under setting [15], 103%; under setting [16], 99.2%; under setting [17], 104%; under setting [38], 103%; under setting [39], 100%. For the same molecule, the viability, T/C was 97.2% under setting [20]; 108% under setting [21]; 102% under setting [22]; 114% under setting [23]; 102% under setting [40]; 100% under setting [41]. The viability, T/C was 99.6% under setting [26]; 104% under setting [27]; 101% under setting [28]; 104% under setting [29]; 96.3% under setting [42]; 89.9% under setting [43]. For the same molecule, the viability, T/C by setting is: under setting [32], 84.5%; under setting [33], 90%; under setting [34], 105%; under setting [35], 94.5%; under setting [44], 94.3%; under setting [45], 85.4%.

Regarding `CC[C@@]1(O)C(=O)OCc2c1cc1n(c2=O)Cc2cc3c(CN(C)C)c(O)ccc3nc2-1`, the viability, T/C is 102% and 96.9% (compound 0.000316 µM); 102% and 100% (compound 0.001 µM); 78.6% and 75.9% (compound 0.00316 µM); 39.1% and 39.4% (compound 0.01 µM); 7.88% and 7.23% (compound 0.0316 µM); 2.74% and 2.23% (compound 0.1 µM). Further, the 50% inhibitory concentration (IC50) (curve of compound) was 7.18 nM and 7.06 nM.

As to `Cn1ncnc1C1c2n[nH]c(=O)c3cc(F)cc(c23)NC1c1ccc(F)cc1` (configuration not stated), the viability, T/C is, setting by setting: (compound 0.000316 µM) 103% and 101%; (compound 0.001 µM) 109% and 102%; (compound 0.00316 µM) 106% and 103%; (compound 0.01 µM) 99.4% and 99.5%; (compound 0.0316 µM) 96.5% and 100%; (compound 0.1 µM) 105% and 101%. The IC50 (curve of compound) is more than 100 nM.

Consider `CC(C)CC(NC(=O)C(Cc1ccccc1)NC(=O)c1cnccn1)B(O)O` (configuration not stated), for which the viability, T/C runs as follows: (compound 0.000316 µM) 96.1% and 106%; (compound 0.001 µM) 102% and 107%; (compound 0.00316 µM) 92.5% and 93.3%; (compound 0.01 µM) 47.3% and 51.2%; (compound 0.0316 µM) 5.97% and 5.35%; (compound 0.1 µM) 2.36% and 0.51%. Where the note is “curve of compound”, the IC50 was 9.31 nM and 9.96 nM.

As for `NC1CCC(NC2CC2c2ccccc2)CC1` (configuration not stated), the viability, T/C is 104% [middle of 25 runs] (compound 0.1 µM); 110% and 108% (2×) (compound 0.316 µM); 102% [middle of 24 runs] (compound 1 µM); 99.8% [middle of 25 runs] (compound 3.16 µM); 91.5% [middle of 23 runs] (compound 10 µM). Where the note is “compound alone, run of 11/29/2021”, the IC50 is more than 10000 nM.

The values are drawn from PubChem BioAssay AID1918955 (Molecular Pharmacology Branch, DTP, NCI, 2023).
